# Measured values reported in ChEMBL document CHEMBL1201862, “PubChem BioAssay data set” (2004).
#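 Where inhibition never reached the appropriate level, the endpoint shown equals the highest concentration tested. Otherwise, values were interpolated linearly from a five-concentration, 48-hour dose response in 96-well plates. GI50: concentration for 50% inhibition of growth.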 Calls of active or inactive are those of the source. No stated cut-off is given here; in the data, active = GI50 up to about 1.1 µM and inactive = higher.
# Legend:
# Assay in all cases: inhibition of tumour cell growth, NCI panel, 48 h
# [1] = system: 786-0
# [2] = system: A498
# [3] = system: A549
# [4] = system: ACHN
# [5] = system: CAKI-1
# [6] = system: CCRF-CEM
# [7] = system: COLO 205
# [8] = system: DLD-1
# [9] = system: DMS-114
# [10] = system: DMS-273
# [11] = system: EKVX
# [12] = system: HCC 2998
# [13] = system: HCT-116
# [14] = system: HCT-15
# [15] = system: HL-60
# [16] = system: HOP-18
# [17] = system: HOP-62
# [18] = system: HOP-92
# [19] = system: HT-29
# [20] = system: IGROV-1
# [21] = system: K562
# [22] = system: KM-20L2
# [23] = system: KM12
# [24] = system: LOX IMVI
# [25] = system: LXFL 529
# [26] = system: M14
# [27] = system: M19-MEL
# [28] = system: MOLT-4
# [29] = system: Malme-3M
# [30] = system: NCI-H23
# [31] = system: NCI-H460
# [32] = system: NCI-H522
# [33] = system: OVCAR-3
# [34] = system: OVCAR-4
# [35] = system: OVCAR-5
# [36] = system: OVCAR-8
# [37] = system: RPMI-8226
# [38] = system: RXF 393
# [39] = system: SF-268
# [40] = system: SF-295
# [41] = system: SK-MEL-28
# [42] = system: SK-MEL-2
# [43] = system: SK-MEL-5
# [44] = system: SK-OV-3
# [45] = system: SN12C
# [46] = system: SNB-19
# [47] = system: SNB-75
# [48] = system: SR
# [49] = system: SW-620
# [50] = system: TK-10
# [51] = system: U-251
# [52] = system: UACC-257
# [53] = system: UACC-62
# [54] = system: UO-31
# [55] = system: XF498
# [56] = system: SF-539
# [57] = system: SNB-78
# [58] = system: NCI-H226
compound,measurement,setting,value
CSc1nc2nc(C)c(C)nc2c(=O)[nH]1,GI50,[1],> 100 µM (inactive)
same,GI50,[2],> 100 µM (inactive)
same,GI50,[3],> 100 µM (inactive)
same,GI50,[4],> 100 µM (inactive)
same,GI50,[5],> 100 µM (inactive)
same,GI50,[6],> 100 µM (inactive)
same,GI50,[7],> 100 µM (inactive)
same,GI50,[8],> 100 µM (inactive)
same,GI50,[9],> 100 µM (inactive)
same,GI50,[10],> 100 µM (inactive)
same,GI50,[11],> 100 µM (inactive)
same,GI50,[12],> 100 µM (inactive)
same,GI50,[13],> 100 µM (inactive)
same,GI50,[14],> 100 µM
same,GI50,[15],> 100 µM (inactive)
same,GI50,[16],> 100 µM (inactive)
same,GI50,[17],> 100 µM (inactive)
same,GI50,[18],> 100 µM (inactive)
same,GI50,[19],> 100 µM (inactive)
same,GI50,[20],> 100 µM (inactive)
same,GI50,[21],> 100 µM (inactive)
same,GI50,[22],> 100 µM (inactive)
same,GI50,[23],> 100 µM (inactive)
same,GI50,[24],> 100 µM (inactive)
same,GI50,[25],> 100 µM (inactive)
same,GI50,[26],> 100 µM (inactive)
same,GI50,[27],> 100 µM (inactive)
same,GI50,[28],51.2 µM (inactive)
same,GI50,[29],> 100 µM (inactive)
same,GI50,[30],> 100 µM (inactive)
same,GI50,[31],> 100 µM (inactive)
same,GI50,[32],> 100 µM (inactive)
same,GI50,[33],> 100 µM (inactive)
same,GI50,[34],> 100 µM (inactive)
same,GI50,[35],> 100 µM (inactive)
same,GI50,[36],> 100 µM (inactive)
same,GI50,[37],> 100 µM (inactive)
same,GI50,[38],> 100 µM (inactive)
same,GI50,[39],> 100 µM (inactive)
same,GI50,[40],> 100 µM (inactive)
same,GI50,[41],> 100 µM (inactive)
same,GI50,[42],> 100 µM (inactive)
same,GI50,[43],> 100 µM (inactive)
same,GI50,[44],> 100 µM (inactive)
same,GI50,[45],> 100 µM (inactive)
same,GI50,[46],> 100 µM (inactive)
same,GI50,[47],> 100 µM (inactive)
same,GI50,[48],> 100 µM (inactive)
same,GI50,[49],> 100 µM (inactive)
same,GI50,[50],> 100 µM (inactive)
same,GI50,[51],> 100 µM (inactive)
same,GI50,[52],> 100 µM (inactive)
same,GI50,[53],> 100 µM (inactive)
same,GI50,[54],> 100 µM (inactive)
same,GI50,[55],> 100 µM (inactive)
COc1ccc(/N=C\c2cc(OC)c(OC)c(OC)c2)cc1,GI50,[1],> 100 µM (inactive)
same,GI50,[2],> 100 µM (inactive)
same,GI50,[3],> 100 µM (inactive)
same,GI50,[4],94 µM (inactive)
same,GI50,[6],57.5 µM (inactive)
same,GI50,[8],> 100 µM (inactive)
same,GI50,[9],57.4 µM (inactive)
same,GI50,[11],> 100 µM (inactive)
same,GI50,[13],> 100 µM (inactive)
same,GI50,[14],29.2 µM
same,GI50,[16],> 100 µM (inactive)
same,GI50,[17],> 100 µM (inactive)
same,GI50,[18],> 100 µM (inactive)
same,GI50,[19],> 100 µM (inactive)
same,GI50,[20],> 100 µM (inactive)
same,GI50,[21],33.7 µM (inactive)
same,GI50,[22],> 100 µM (inactive)
same,GI50,[23],> 100 µM (inactive)
same,GI50,[24],17.5 µM (inactive)
same,GI50,[25],51.6 µM (inactive)
same,GI50,[27],> 100 µM (inactive)
same,GI50,[28],> 100 µM (inactive)
same,GI50,[29],> 100 µM (inactive)
same,GI50,[30],> 100 µM (inactive)
same,GI50,[31],85.9 µM (inactive)
same,GI50,[34],> 100 µM (inactive)
same,GI50,[35],> 100 µM (inactive)
same,GI50,[36],> 100 µM (inactive)
same,GI50,[37],18.7 µM (inactive)
same,GI50,[38],> 100 µM (inactive)
same,GI50,[39],> 100 µM (inactive)
same,GI50,[56],87.1 µM (inactive)
same,GI50,[41],> 100 µM (inactive)
same,GI50,[42],> 100 µM (inactive)
same,GI50,[43],> 100 µM (inactive)
same,GI50,[44],> 100 µM (inactive)
same,GI50,[45],> 100 µM (inactive)
same,GI50,[46],> 100 µM (inactive)
same,GI50,[47],> 100 µM (inactive)
same,GI50,[57],> 100 µM (inactive)
same,GI50,[49],14.3 µM (inactive)
same,GI50,[50],> 100 µM (inactive)
same,GI50,[51],> 100 µM (inactive)
same,GI50,[52],> 100 µM (inactive)
same,GI50,[53],23.9 µM (inactive)
same,GI50,[54],64.9 µM (inactive)
same,GI50,[55],> 100 µM (inactive)
Cc1c(/C=N/N=C/c2[nH]c(C(=O)OC(C)(C)C)c(C)c2C)[nH]c(C(=O)OC(C)(C)C)c1C,GI50,[1],50.8 µM (inactive)
same,GI50,[2],> 100 µM (inactive)
same,GI50,[3],> 100 µM (inactive)
same,GI50,[5],> 100 µM (inactive)
same,GI50,[6],70.1 µM (inactive)
same,GI50,[7],> 100 µM (inactive)
same,GI50,[8],> 100 µM (inactive)
same,GI50,[9],> 100 µM (inactive)
same,GI50,[10],> 100 µM (inactive)
same,GI50,[11],> 100 µM (inactive)
same,GI50,[12],> 100 µM (inactive)
same,GI50,[13],> 100 µM (inactive)
same,GI50,[14],> 100 µM
same,GI50,[15],43.3 µM (inactive)
same,GI50,[16],> 100 µM (inactive)
same,GI50,[17],> 100 µM (inactive)
same,GI50,[18],67.8 µM (inactive)
same,GI50,[19],> 100 µM (inactive)
same,GI50,[20],> 100 µM (inactive)
same,GI50,[21],59.4 µM (inactive)
same,GI50,[22],> 100 µM (inactive)
same,GI50,[23],> 100 µM (inactive)
same,GI50,[24],61 µM (inactive)
same,GI50,[25],> 100 µM (inactive)
same,GI50,[26],> 100 µM (inactive)
same,GI50,[27],> 100 µM (inactive)
same,GI50,[28],> 100 µM (inactive)
same,GI50,[29],> 100 µM (inactive)
same,GI50,[58],> 100 µM (inactive)
same,GI50,[30],> 100 µM (inactive)
same,GI50,[31],81.5 µM (inactive)
same,GI50,[32],66.5 µM (inactive)
same,GI50,[33],> 100 µM (inactive)
same,GI50,[34],> 100 µM (inactive)
same,GI50,[35],> 100 µM (inactive)
same,GI50,[36],98.9 µM (inactive)
same,GI50,[37],90.6 µM (inactive)
same,GI50,[38],> 100 µM (inactive)
same,GI50,[39],> 100 µM (inactive)
same,GI50,[40],> 100 µM (inactive)
same,GI50,[56],> 100 µM (inactive)
same,GI50,[42],> 100 µM (inactive)
same,GI50,[43],> 100 µM (inactive)
same,GI50,[44],> 100 µM (inactive)
same,GI50,[45],> 100 µM (inactive)
same,GI50,[46],> 100 µM (inactive)
same,GI50,[47],33 µM (inactive)
same,GI50,[57],> 100 µM (inactive)
same,GI50,[48],> 100 µM (inactive)
same,GI50,[49],> 100 µM (inactive)
same,GI50,[50],> 100 µM (inactive)
same,GI50,[51],> 100 µM (inactive)
same,GI50,[52],> 100 µM (inactive)
same,GI50,[53],> 100 µM (inactive)
same,GI50,[54],> 100 µM (inactive)
